Measured values published in PMC11237694, “Novel pentafluorosulfanyl-containing triclocarban analogs selectively kill Gram-positive bacteria” (Microbiology Spectrum, 2024).
≈ marks a conversion by molar mass, not a printed value.

Legend:
E. coli ATCC 25922 = assay: Planktonic susceptibility (MIC/MBC), 96-well broth microdilution; assay type: cell-based; settings: Escherichia coli; for MBC: ATCC25922; for MIC: ATCC25922, planktonic, overnight 37°C in MHB
Protocol: (§1) All bacterial strains subjected to testing had been stored at −70°C prior to the experiment. The experiment commenced by streaking small amounts of the frozen bacterial samples onto Muller-Hinton agar (MHA) culture medium (BD Bacto, Oxoid, Basingstoke, UK Cat# X296B) and allowing for overnight incubation. Bacteria were re-cultured on MHA plates as required to confirm colony morphology and lack of contamination. Strains tested were P. aeruginosa ATCC 27853, E. coli ATCC 25922, Staphylococcus aureus ATCC 25923, MRSA ATCC 33591, S. epidermidis ATCC 12228, Klebsiella pneumoniae ATCC, P. mirabilis ATCC 35659, and 10 clinical isolates of MRSA from Foothills Hospital, Calgary, Canada. To prepare for susceptibility testing, a protocol modified from Lemire et al was used ([28]). MHB was swab-inoculated from MHA colonies and shake-incubated until turbid. Dilution of the broth with 0.9% saline was performed as necessary to match a 1.0 McFarland standard.
(§2) MIC and MBC assessments were conducted on all bacterial strains using 96-well microtiter plates. To prepare the wells for bacteria, serial dilutions of the antibacterial agents were carried out along the rows of two microtiter plates. The antibacterials were 2-fold diluted with Mueller-Hinton broth (MHB) in each column, reaching a volume of 75 µL. The 1.0 McFarland standard was diluted 15-fold in MHB, and 75 µL of inoculum was added to the wells treated with antibacterials, resulting in a total volume of 150 µL. The microtiter plates were covered and then shake-incubated overnight at 150 rpm and 37°C. MIC was determined based on visible bacterial growth. In cases of antibacterial opacity or ambiguous results, streaking of well cultures on MHA, overnight incubation, and subsequent comparison with controls were performed. MBC was determined by transferring 3 µL of culture from all MIC microtiter plate wells to 147 µL of Mueller-Hinton broth in fresh plates. These plates were shake-incubated overnight at 150 rpm and 37°C, and bacterial growth was visually inspected.

P. aeruginosa ATCC 27853 = assay: as above; assay type: cell-based; settings: Pseudomonas aeruginosa; for MBC: ATCC27853; for MIC: ATCC27853, planktonic, overnight 37°C in MHB
Protocol: as §1, §2

[1] = system: Klebsiella pneumoniae ATCC; assay: as above; assay type: cell-based; settings: K. pneumonia; for MIC: planktonic, overnight 37°C in MHB
Protocol: as §1, §2

P. mirabilis ATCC 35659 = assay: as above; assay type: cell-based; settings: Proteus mirabilis; for MBC: ATCC35659; for MIC: ATCC35659, planktonic, overnight 37°C in MHB
Protocol: as §1, §2

[2] = system: Staphylococcus aureus ATCC 25923; assay: as above; assay type: cell-based; settings: Staphylococcus aureus, ATCC25923, S. aureus; for MIC: planktonic, overnight 37°C in MHB
Protocol: as §1, §2

[3] = system: S. epidermidis ATCC 12228; assay: as above; assay type: cell-based, Staphylococcus epidermidis; settings: Staphylococcus epidermidis; for MBC: ATCC12228; for MIC: ATCC12228, planktonic, overnight 37°C in MHB
Protocol: as §1, §2

[4] = system: 10 clinical isolates of MRSA from Foothills Hospital, Calgary; assay: Planktonic susceptibility (MIC/MBC) of MRSA clinical isolates; assay type: cell-based, methicillin-resistant S. aureus; settings: Staphylococcus aureus
Protocol: as §1
as §2, with “In cases of antibacterial opacity or ambiguous results, streaking of well cultures on MHA, overnight incubation, and subsequent comparison with controls were performed.” left out

MRSA ATCC 33591 = assay: Planktonic susceptibility (MIC/MBC), 96-well broth microdilution; assay type: cell-based, methicillin-resistant S. aureus; settings: Staphylococcus aureus, MRSA reference strain; for MIC: planktonic, overnight 37°C in MHB
Protocol: as §1
as §2, with “In cases of antibacterial opacity or ambiguous results, streaking of well cultures on MHA, overnight incubation, and subsequent comparison with controls were performed.” left out

Gram-negative pathogens = system: Gram-negative pathogens; set-up: method as in PMID 12534815; settings: cited from earlier work
Gram-positive bacteria = system: Gram-positive bacteria; set-up: method as in PMID 12534815; settings: cited from earlier work

| Compound | MBC [1] [µM] | MIC [1] [µM] | MBC (P. mirabilis ATCC 35659) [µM] | MIC (P. mirabilis ATCC 35659) [µM] | MBC [2] [µM] | MIC [2] [µM] | MBC [3] [µM] | MIC [3] [µM] | MBC ([4]; MRSA #1 clinical isolate) [µM] | MIC ([4]; MRSA #1 clinical isolate) [µM] | MBC ([4]; MRSA #2 clinical isolate) [µM] | MIC ([4]; MRSA #2 clinical isolate) [µM] | MBC ([4]; MRSA #3 clinical isolate) [µM] | MIC ([4]; MRSA #3 clinical isolate) [µM] | MBC ([4]; MRSA #4 clinical isolate) [µM] | MIC ([4]; MRSA #4 clinical isolate) [µM] | MBC ([4]; MRSA #5 clinical isolate) [µM] | MIC ([4]; MRSA #5 clinical isolate) [µM] | MBC ([4]; MRSA #6 clinical isolate) [µM] | MIC ([4]; MRSA #6 clinical isolate) [µM] | further results |
| --- | --- | --- | --- | --- | --- | --- | --- | --- | --- | --- | --- | --- | --- | --- | --- | --- | --- | --- | --- | --- | --- |
| O=C(O)c1cn(C2CC2)c2cc(N3CCNCC3)c(F)cc2c1=O [Cip, Ciprofloxacin, reference compound] | 500 (≈ 166 µg/mL) | 10 (≈ 3.31 µg/mL) | 800 (≈ 265 µg/mL) | 20 (≈ 6.63 µg/mL) | 80 (≈ 26.5 µg/mL) | 80 (≈ 26.5 µg/mL) | 1200 (≈ 398 µg/mL) | 1200 (≈ 398 µg/mL) | – | – | – | – | – | – | – | – | – | – | – | – | MBC (E. coli ATCC 25922): 2 µM (≈ 0.663 µg/mL); MIC (E. coli ATCC 25922): 2 µM (≈ 0.663 µg/mL); MBC (P. aeruginosa ATCC 27853): 2400 µM (≈ 795 µg/mL); MIC (P. aeruginosa ATCC 27853): 61 µM (≈ 20.2 µg/mL) |
| O=C(Nc1ccc(Cl)c(C(F)(F)F)c1)Nc1ccc(Cl)c(C(F)(F)F)c1 [EBP-34, 1,3-di(4-chloro-3-(trifluoromethyl)phenyl)urea] | > 5000 | > 5000 | 625 (≈ 261 µg/mL) | 625 (≈ 261 µg/mL) | 10 (≈ 4.17 µg/mL) | 3.8 (≈ 1.59 µg/mL) | 10 (≈ 4.17 µg/mL) | 0.2 (≈ 0.0834 µg/mL) | < 2 | 600 (≈ 250 µg/mL) | < 2 | < 2 | 80 (≈ 33.4 µg/mL) | 80 (≈ 33.4 µg/mL) | < 2 | < 2 | 10 (≈ 4.17 µg/mL) | 10 (≈ 4.17 µg/mL) | 10 (≈ 4.17 µg/mL) | 10 (≈ 4.17 µg/mL) | MBC ([4]; MRSA #7 clinical isolate): 10 µM (≈ 4.17 µg/mL); MIC ([4]; MRSA #7 clinical isolate): < 2 µM; MBC ([4]; MRSA #8 clinical isolate): 5 µM (≈ 2.09 µg/mL); MIC ([4]; MRSA #8 clinical isolate): 5 µM (≈ 2.09 µg/mL); MBC ([4]; MRSA #9 clinical isolate): < 2 µM; MIC ([4]; MRSA #9 clinical isolate): < 2 µM; MBC ([4]; MRSA #10 clinical isolate): 10 µM (≈ 4.17 µg/mL); MIC ([4]; MRSA #10 clinical isolate): < 2 µM; MBC (MRSA ATCC 33591): 61 µM (≈ 25.4 µg/mL); MIC (MRSA ATCC 33591): 1.9 µM (≈ 0.793 µg/mL) |
| O=C(Nc1ccc(Cl)c(C(F)(F)F)c1)Nc1cc(S(F)(F)(F)(F)F)ccc1Cl [EBP-37, 3-(4-chloro-3-(trifluoromethyl)phenyl)-1-(2-chloro-5-pentafluoro-λ^6-sulfanyl)urea] | > 5000 | > 5000 | 625 (≈ 297 µg/mL) | 625 (≈ 297 µg/mL) | 4900 (≈ 2330 µg/mL) | 1.2 (≈ 0.57 µg/mL) | 40 (≈ 19 µg/mL) | 8 (≈ 3.8 µg/mL) | 1200 (≈ 570 µg/mL) | 10 (≈ 4.75 µg/mL) | 10 (≈ 4.75 µg/mL) | < 2 | 600 (≈ 285 µg/mL) | 80 (≈ 38 µg/mL) | 10 (≈ 4.75 µg/mL) | < 2 | 10 (≈ 4.75 µg/mL) | 10 (≈ 4.75 µg/mL) | < 2 | < 2 | MBC ([4]; MRSA #7 clinical isolate): 40 µM (≈ 19 µg/mL); MIC ([4]; MRSA #7 clinical isolate): 10 µM (≈ 4.75 µg/mL); MBC ([4]; MRSA #8 clinical isolate): 10 µM (≈ 4.75 µg/mL); MIC ([4]; MRSA #8 clinical isolate): < 2 µM; MBC ([4]; MRSA #9 clinical isolate): 10 µM (≈ 4.75 µg/mL); MIC ([4]; MRSA #9 clinical isolate): 5 µM (≈ 2.38 µg/mL); MBC ([4]; MRSA #10 clinical isolate): 10 µM (≈ 4.75 µg/mL); MIC ([4]; MRSA #10 clinical isolate): < 2 µM; MBC (MRSA ATCC 33591): 40 µM (≈ 19 µg/mL); MIC (MRSA ATCC 33591): 8 µM (≈ 3.8 µg/mL) |
| O=C(Nc1ccc(Cl)cc1)Nc1cc(S(F)(F)(F)(F)F)ccc1Cl [EBP-40, 1-(2-Chloro-5-(pentafluoro-λ^6-sulfanyl)phenyl)-3-(4-chlorophenyl)urea] | > 5000 | > 5000 | 625 (≈ 254 µg/mL) | 625 (≈ 254 µg/mL) | 1200 (≈ 489 µg/mL) | 480 (≈ 195 µg/mL) | 900 (≈ 366 µg/mL) | 1200 (≈ 489 µg/mL) | 1200 (≈ 489 µg/mL) | 20 (≈ 8.14 µg/mL) | 40 (≈ 16.3 µg/mL) | 20 (≈ 8.14 µg/mL) | 160 (≈ 65.2 µg/mL) | 80 (≈ 32.6 µg/mL) | 160 (≈ 65.2 µg/mL) | 40 (≈ 16.3 µg/mL) | 40 (≈ 16.3 µg/mL) | 20 (≈ 8.14 µg/mL) | 160 (≈ 65.2 µg/mL) | 40 (≈ 16.3 µg/mL) | MBC ([4]; MRSA #7 clinical isolate): 80 µM (≈ 32.6 µg/mL); MIC ([4]; MRSA #7 clinical isolate): 40 µM (≈ 16.3 µg/mL); MBC ([4]; MRSA #8 clinical isolate): 80 µM (≈ 32.6 µg/mL); MIC ([4]; MRSA #8 clinical isolate): 40 µM (≈ 16.3 µg/mL); MBC ([4]; MRSA #9 clinical isolate): 80 µM (≈ 32.6 µg/mL); MIC ([4]; MRSA #9 clinical isolate): 20 µM (≈ 8.14 µg/mL); MBC (MRSA ATCC 33591): 610 µM (≈ 248 µg/mL); MIC (MRSA ATCC 33591): 150 µM (≈ 61.1 µg/mL) |
| CNC(C)C1CCC(N)C(OC2C(N)CC(N)C(OC3OCC(C)(O)C(NC)C3O)C2O)O1 (stereo not shown) [Gen, Gentamicin, reference compound] | 50 (≈ 23.9 µg/mL) | 1 (≈ 0.478 µg/mL) | 50 (≈ 23.9 µg/mL) | 1 (≈ 0.478 µg/mL) | 40 (≈ 19.1 µg/mL) | 40 (≈ 19.1 µg/mL) | 300 (≈ 143 µg/mL) | 300 (≈ 143 µg/mL) | 1600 (≈ 764 µg/mL) | 100 (≈ 47.8 µg/mL) | 200 (≈ 95.5 µg/mL) | 50 (≈ 23.9 µg/mL) | 50 (≈ 23.9 µg/mL) | 50 (≈ 23.9 µg/mL) | 50 (≈ 23.9 µg/mL) | 50 (≈ 23.9 µg/mL) | 6250 (≈ 2990 µg/mL) | 800 (≈ 382 µg/mL) | 25000 (≈ 11900 µg/mL) | 3000 (≈ 1430 µg/mL) | MBC ([4]; MRSA #7 clinical isolate): 1600 µM (≈ 764 µg/mL); MIC ([4]; MRSA #7 clinical isolate): 50 µM (≈ 23.9 µg/mL); MBC ([4]; MRSA #8 clinical isolate): 50 µM (≈ 23.9 µg/mL); MIC ([4]; MRSA #8 clinical isolate): 50 µM (≈ 23.9 µg/mL); MBC ([4]; MRSA #9 clinical isolate): 50 µM (≈ 23.9 µg/mL); MIC ([4]; MRSA #9 clinical isolate): 50 µM (≈ 23.9 µg/mL); MBC ([4]; MRSA #10 clinical isolate): 50 µM (≈ 23.9 µg/mL); MIC ([4]; MRSA #10 clinical isolate): 50 µM (≈ 23.9 µg/mL); MBC (E. coli ATCC 25922): 10 µM (≈ 4.78 µg/mL); MIC (E. coli ATCC 25922): 10 µM (≈ 4.78 µg/mL); MBC (P. aeruginosa ATCC 27853): 1200 µM (≈ 573 µg/mL); MIC (P. aeruginosa ATCC 27853): 12 µM (≈ 5.73 µg/mL) |
| O=C(Nc1ccc(Cl)cc1)Nc1ccc(Cl)c(Cl)c1 [TCC, triclocarban] | – | – | – | – | – | – | – | – | – | – | – | – | – | – | – | – | – | – | – | – | activity against Gram-negative pathogens (Gram-negative pathogens): no activity; antibacterial action against Gram-positive bacteria (Gram-positive bacteria): antibacterial action |
| O=C(Nc1ccc(Cl)cc1)Nc1ccc(Cl)c(C(F)(F)F)c1 [cloflucarban, 3-trifluoromethyl-4,4′-dichlorocarbanilide] | – | – | – | – | – | – | – | – | – | – | – | – | – | – | – | – | – | – | – | – | activity against Gram-negative pathogens (Gram-negative pathogens): no activity; antibacterial action against Gram-positive bacteria (Gram-positive bacteria): antibacterial action |
